From patent publication US11524966B1 (Valo Early Discovery, Inc., priority 2017, dated 2022) come the findings set out here.

The term IC50 denotes the concentration that gives 50% inhibition.

This test concerns the target T1, USP28 (His-tagged USP28-FL-mammalian) (Homo sapiens, UniProt Q96RU2).
T1 construct: Expression of USP28 (1-1077)-TEV-6*His (pTT5 vector); made in house; host or cells: Expi293f cells (pTT5 vector)
T1 sequence (Q96RU2 1-1077): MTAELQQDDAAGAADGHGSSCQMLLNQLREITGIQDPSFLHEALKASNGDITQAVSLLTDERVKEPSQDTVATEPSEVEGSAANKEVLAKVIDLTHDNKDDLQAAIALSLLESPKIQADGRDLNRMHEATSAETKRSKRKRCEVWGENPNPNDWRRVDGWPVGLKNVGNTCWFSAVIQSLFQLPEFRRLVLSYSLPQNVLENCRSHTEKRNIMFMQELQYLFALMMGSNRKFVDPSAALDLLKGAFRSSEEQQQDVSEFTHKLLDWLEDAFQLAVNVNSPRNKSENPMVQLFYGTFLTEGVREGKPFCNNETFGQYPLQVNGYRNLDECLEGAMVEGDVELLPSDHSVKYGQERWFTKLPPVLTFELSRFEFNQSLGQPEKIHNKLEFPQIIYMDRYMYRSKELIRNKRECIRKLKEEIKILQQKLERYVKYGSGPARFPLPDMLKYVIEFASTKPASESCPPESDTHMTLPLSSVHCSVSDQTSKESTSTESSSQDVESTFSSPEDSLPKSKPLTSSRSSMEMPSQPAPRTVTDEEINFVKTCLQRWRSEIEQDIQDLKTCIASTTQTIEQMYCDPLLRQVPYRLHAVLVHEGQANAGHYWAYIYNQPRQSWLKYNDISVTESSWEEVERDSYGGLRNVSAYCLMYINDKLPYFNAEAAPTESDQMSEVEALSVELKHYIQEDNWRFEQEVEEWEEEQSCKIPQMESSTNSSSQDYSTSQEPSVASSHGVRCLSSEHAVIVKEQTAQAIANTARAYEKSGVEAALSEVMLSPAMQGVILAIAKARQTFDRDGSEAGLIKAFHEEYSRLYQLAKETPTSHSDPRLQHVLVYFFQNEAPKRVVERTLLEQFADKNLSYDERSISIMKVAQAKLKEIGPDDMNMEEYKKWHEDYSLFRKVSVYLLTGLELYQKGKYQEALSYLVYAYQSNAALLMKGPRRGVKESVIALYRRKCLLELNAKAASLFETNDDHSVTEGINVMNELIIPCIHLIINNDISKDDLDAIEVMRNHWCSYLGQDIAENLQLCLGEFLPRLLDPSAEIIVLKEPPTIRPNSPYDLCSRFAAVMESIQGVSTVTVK
The test is described as follows: Ubiquitin-Rhodamine 110 Assay for USP28 Activity, Example A-1(a). It is filed as biochemical. The settings on record: Ubiquitin-Rhodamine 110 assay, Example A-1(a); read-out: USP28 A-1(a) IC50 range. A digest of the protocol:
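Full-length His-tagged USP28 (1-1077, Expi293F-expressed; […]) was preincubated 30 min with compound (25 μM–1.3 nM, 10-point 3-fold) in 20 mM Tris-HCl pH 8.0, 3 mM BME, 0.03% BGG, 0.01% Triton X-100. Ub-Rh110 (25 nM) was then added for 45 min at room temperature, stopped with citric acid, and read by fluorescence (485/535 nm).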
As to `Cc1ccc2c(N)c(C(=O)N[C@H]3COc4cc(N5CC6CCC(C5)N6)c(F)cc4C3)sc2n1` [Example 104, 3-amino-N-[(3R)-7-{3,8-diazabicyclo[3.2.1]octan-3-yl]-6-fluoro-3,4-dihydro-2H-1-benzopyran-3-yl]-6-methylthieno[2,3-b]pyridine-2-carboxamide], the IC50 is 1 to 50 nM.

Turning to `CO[C@H]1CN(c2ccc3c(c2)CC[C@H](NC(=O)c2sc4nc(C)cnc4c2N)C3)C[C@@H]1N` [Example 130, 7-amino-N-[(2S)-6-[(3S,4S)-3-amino-4-methoxypyrrolidin-1-yl]-1,2,3,4-tetrahydronaphthalen-2-yl]-3-methylthieno[2,3-b]pyrazine-6-carboxamide], the 50% inhibitory concentration (IC50) fell in the range of 50 to 200 nM.

Take `CO[C@@H]1CCN(c2ccc3c(c2)OC[C@H](NC(=O)c2sc4nc(C)ccc4c2N)C3)C[C@H]1N` [Example 120, 3-amino-N-[(3R)-7-[(3R,4R)-3-amino-4-methoxypiperidin-1-yl]-3,4-dihydro-2H-1-benzopyran-3-yl]-6-methylthieno[2,3-b]pyridine-2-carboxamide]: the concentration for half-maximal inhibition (IC50) lay within 1 to 50 nM.

Turning to `Cc1ccc2c(N)c(C(=O)N[C@H]3COc4cc([C@H]5C[C@H](N)C5)ccc4C3)sc2n1` [Example 124, 3-amino-6-methyl-N-[(3R)-7-[(1r,3r)-3-aminocyclobutyl]-3,4-dihydro-2H-1-benzopyran-3-yl]thieno[2,3-b]pyridine-2-carboxamide], the IC50 is 1 to 50 nM.

Take `Cc1cnc2c(N)c(C(=O)N[C@H]3COc4cc(N5CC6CCC(C5)N6)c(F)c(F)c4C3)sc2n1` [Example 97, 7-amino-N-[(3R)-7-{3,8-diazabicyclo[3.2.1]octan-3-yl]-5,6-difluoro-3,4-dihydro-2H-1-benzopyran-3-yl]-3-methylthieno[2,3-b]pyrazine-6-carboxamide]: the half-maximal inhibitory concentration (IC50) lay in the range of 1 to 50 nM.

For the compound `Cc1ccc2c(N)c(C(=O)N[C@H]3CCc4c(ccc(N5CC6CNCC(C5)O6)c4F)C3)sc2n1` [Example 99, 3-amino-N-[(2S)-5-fluoro-6-{9-oxa-3,7-diazabicyclo[3.3.1]nonan-3-yl}-1,2,3,4-tetrahydronaphthalen-2-yl]-6-methylthieno[2,3-b]pyridine-2-carboxamide], the half-maximal inhibitory concentration (IC50) is 1 to 50 nM.

`Cc1ccc2c(N)c(C(=O)N[C@H]3COc4cc(N5C[C@@H](N)[C@@H](C(F)F)C5)ccc4C3)sc2n1` [Example 168, 3-amino-N-[(3R)-7-[(3S,4S)-3-amino-4-(difluoromethyl)pyrrolidin-1-yl]-3,4-dihydro-2H-1-benzopyran-3-yl]-6-methylthieno[2,3-b]pyridine-2-carboxamide]: the IC50 is 1 to 50 nM.

Regarding `Cc1ccc2c(N)c(C(=O)N[C@H]3COc4cc(N5CCNCC5)cc(F)c4C3)oc2n1` [Example 169, 3-amino-N-[(3R)-5-fluoro-7-(piperazin-1-yl)-3,4-dihydro-2H-1-benzopyran-3-yl]-6-methylfuro[2,3-b]pyridine-2-carboxamide], the IC50 was in the range of 200 to 2000 nM.

Turning to `Cc1ccc2c(N)c(C(=O)N[C@H]3COc4cc(N5C[C@@H]6NCCO[C@@H]6C5)ccc4C3)sc2n1` [Example 153, N-[(3R)-7-[(4aS,7aR)-octahydropyrrolo[3,4-b]morpholin-6-yl]-3,4-dihydro-2H-1-benzopyran-3-yl]-3-amino-6-methylthieno[2,3-b]pyridine-2-carboxamide], the IC50 lay in the range of 50 to 200 nM.

For `Cc1ccc2c(N)c(C(=O)N[C@H]3COc4cc(N5C[C@@H]6C[C@H]5CN6)c(F)c(F)c4C3)sc2n1` [Example 112, 3-amino-N-[(3R)-7-[(1S,4S)-2,5-diazabicyclo[2.2.1]heptan-2-yl]-5,6-difluoro-3,4-dihydro-2H-1-benzopyran-3-yl]-6-methylthieno[2,3-b]pyridine-2-carboxamide], the IC50 was in the range of 1 to 50 nM.

Turning to `CO[C@H]1CN(c2ccc3c(c2)CC[C@H](NC(=O)c2sc4nc(C)ccc4c2N)C3)C[C@@H]1N` [Example 116, 3-amino-N-[(2S)-6-[(3S,4S)-3-amino-4-methoxypyrrolidin-1-yl}-1,2,3,4-tetrahydronaphthalen-2-yl]-6-methylthieno[2,3-b]pyridine-2-carboxamide], the IC50 lay within 50 to 200 nM.

Consider `Cc1cc(C)c2c(N)c(C(=O)N[C@H]3COc4cc(N5CCNCC5)c(F)c(F)c4C3)sc2n1` [Example 159, 3-amino-N-[(3R)-5,6-difluoro-7-(piperazin-1-yl)-3,4-dihydro-2H-1-benzopyran-3-yl]-4,6-dimethylthieno[2,3-b]pyridine-2-carboxamide], for which the 50% inhibitory concentration (IC50) was above 2000 nM.

`Cc1ccc2c(N)c(C(=O)N[C@H]3COc4cc(N5C[C@H](OC6CC6)[C@@H](N)C5)ccc4C3)sc2n1` [Example 140, 3-amino-N-[(3R)-7-[(3S,4S)-3-amino-4-cyclopropoxypyrrolidin-1-yl]-3,4-dihydro-2H-1-benzopyran-3-yl]-6-methylthieno[2,3-b]pyridine-2-carboxamide]: the 50% inhibitory concentration (IC50) was 1 to 50 nM.

As to `COC[C@H]1CN(c2ccc3c(c2)OC[C@H](NC(=O)c2sc4nc(C)ccc4c2N)C3)CCN1` [Example 157, 3-amino-N-[(3R)-7-[(3R)-3-(methoxymethyl)piperazin-1-yl]-3,4-dihydro-2H-1-benzopyran-3-yl]-6-methylthieno[2,3-b]pyridine-2-carboxamide], the half-maximal inhibitory concentration (IC50) lay in the range of 1 to 50 nM.

For the compound `Cc1ccc2c(N)c(C(=O)N[C@H]3CCc4c(ccc(N5CC6CNCC(C5)O6)c4C#N)C3)sc2n1` [Example 102, 3-amino-N-[(2S)-5-cyano-6-{9-oxa-3,7-diazabicyclo[3.3.1]nonan-3-yl}-1,2,3,4-tetrahydronaphthalen-2-yl]-6-methylthieno[2,3-b]pyridine-2-carboxamide], the IC50 is 1 to 50 nM.

Regarding `CCO[C@@H]1CN(c2ccc3c(c2)OC[C@H](NC(=O)c2sc4nc(C)ccc4c2N)C3)C[C@@H]1N` [Example 151, 3-amino-N-[(3R)-7-[(3S,4R)-3-amino-4-ethoxypyrrolidin-1-yl]-3,4-dihydro-2H-1-benzopyran-3-yl]-6-methylthieno[2,3-b]pyridine-2-carboxamide], the half-maximal inhibitory concentration (IC50) fell in the range of 1 to 50 nM.

On to `Cc1ccc2c(N)c(C(=O)N[C@H]3COc4nc(N5CC6CCC(C5)N6)ccc4C3)sc2n1` [Example 173, 3-amino-N-[(3R)-7-{3,8-diazabicyclo[3.2.1]octan-3-yl]-2H,3H,4H-pyrano[2,3-b]pyridin-3-yl]-6-methylthieno[2,3-b]pyridine-2-carboxamide], for which the IC50 was 50 to 200 nM.

`Cc1ccc2c(N)c(C(=O)N[C@H]3COc4cc(N5C[C@H](N)[C@H](C(F)F)C5)ccc4C3)sc2n1` [Example 167, 3-amino-N-[(3R)-7-[(3R,4R)-3-amino-4-(difluoromethyl)pyrrolidin-1-yl]-3,4-dihydro-2H-1-benzopyran-3-yl]-6-methylthieno[2,3-b]pyridine-2-carboxamide]: the IC50 is 1 to 50 nM.

On to `CO[C@H]1CN(c2cc(F)c3c(c2)CC[C@H](NC(=O)c2sc4nc(C)ccc4c2N)C3)C[C@@H]1N` [Example 136, 3-amino-N-[(2S)-6-[(3S,4S)-3-amino-4-methoxypyrrolidin-1-yl]-8-fluoro-1,2,3,4-tetrahydronaphthalen-2-yl]-6-methylthieno[2,3-b]pyridine-2-carboxamide], for which the IC50 is above 2000 nM.

With `COc1nc2sc(C(=O)N[C@H]3CCc4cc(N5C[C@H](OC)[C@@H](N)C5)ccc4C3)c(N)c2cc1F` [Example 135, 3-amino-N-[(2S)-6-[(3S,4S)-3-amino-4-methoxypyrrolidin-1-yl]-1,2,3,4-tetrahydronaphthalen-2-yl]-5-fluoro-6-methoxythieno[2,3-b]pyridine-2-carboxamide], the half-inhibitory concentration (IC50) lay within 200 to 2000 nM.

As to `CO[C@H]1CN(c2cc(F)c3c(c2)CC[C@@H](NC(=O)c2sc4nc(C)ccc4c2N)C3)C[C@@H]1N` [Example 137, 3-amino-N-[(2R)-6-[(3S,4S)-3-amino-4-methoxypyrrolidin-1-yl]-8-fluoro-1,2,3,4-tetrahydronaphthalen-2-yl]-6-methylthieno[2,3-b]pyridine-2-carboxamide], the 50% inhibitory concentration (IC50) fell in the range of 50 to 200 nM.

Regarding `CO[C@H]1CN(c2ccc3c(c2)OC[C@H](NC(=O)c2sc4nc(C)sc4c2N)C3)C[C@H]1N` [Example 150], the IC50 lay within 50 to 200 nM.
